Laboratory results: ChEMBL document CHEMBL4706518, “Discovery of MGS0274, an ester prodrug of a metabotropic glutamate receptor 2/3 agonist with improved oral bioavailability” (Eur J Med Chem, 2020)
Active and inactive are the calls of the source. The rule behind the calls is not given here.

Key:
[1] = target: Metabotropic glutamate receptor 2 (Homo sapiens, UniProt Q14416); experiment: Agonist activity at human mGlu2 receptor expressed in CHO cell membranes by GTPgammaS binding assay; format: functional, Cell membrane
[2] = target: D(1A) dopamine receptor (Homo sapiens) (UniProt P21728); experiment: Binding affinity to D1 receptor (unknown origin) 10 umol/L by radioligand binding assay; details: dose 10.0 µmol/L
[3] = target: Muscarinic acetylcholine receptor M1 (Homo sapiens) (UniProt P11229); experiment: Binding affinity to muscarinic M1 (unknown origin) 10 umol/L by radioligand binding assay; details: dose 10.0 µmol/L
[4] = organism: Homo sapiens; experiment: Binding affinity to sodium channel site 2 (unknown origin) 10 umol/L by radioligand binding assay; details: dose 10.0 µmol/L
[5] = target: Delta-type opioid receptor (Homo sapiens) (UniProt P41143); experiment: Binding affinity to delta opioid receptor (unknown origin) 10 umol/L by radioligand binding assay; details: dose 10.0 µmol/L
[6] = target: Platelet-activating factor receptor (Homo sapiens) (UniProt P25105); experiment: Binding affinity to PAF receptor (unknown origin) 10 umol/L by radioligand binding assay; details: dose 10.0 µmol/L
[7] = Oral bioavailability in monkey at 4.92 umol/kg measured up to 24 hrs by LC-MS/MS analysis; format: ADME, organism-based, Macaca mulatta; details: rhesus monkey, in vivo, at 4.92 µmol/kg
[8] = target: Metabotropic glutamate receptor 3 (Rattus norvegicus, UniProt P31422); experiment: Agonist activity at rat mGlu3 receptor expressed in CHO cell membranes by GTPgammaS binding assay; format: functional, Cell membrane
[9] = target: Metabotropic glutamate receptor 3 (Rattus norvegicus) (UniProt P31422); experiment: Agonist activity at rat mGlu3 receptor expressed in CHO cell membranes by GTPgammaS binding assay relative to control; format: functional; details: Cell membrane, filed as agonist
[10] = target: Metabotropic glutamate receptor 3 (Homo sapiens, UniProt Q14832); experiment: Antagonist activity at human mGlu3 receptor expressed in CHO cell membranes in presence of glutamate by GTPgammaS binding assay; format: functional, Cell membrane
[11] = target: T1, Metabotropic glutamate receptor 4 (Homo sapiens, UniProt Q14833); experiment: Agonist activity at human mGlu4 receptor expressed in CHO cell membranes by GTPgammaS binding assay; format: functional, Cell membrane
[12] = target: T2, Metabotropic glutamate receptor 1 (Homo sapiens, UniProt Q13255); experiment: Agonist activity at human mGlu1 receptor expressed in CHO cell membranes by intracellular Ca2+ assay; format: functional, Cell membrane
[13] = target: T3, Metabotropic glutamate receptor 6 (Homo sapiens, UniProt O15303); experiment: Agonist activity at human mGlu6 receptor expressed in HEK293T cell membranes by GTPgammaS binding assay; format: functional, Cell membrane
[14] = target: T4, Metabotropic glutamate receptor 8 (Homo sapiens, UniProt O00222); experiment: Agonist activity at human mGlu8 receptor expressed in CHO cell membranes by GTPgammaS binding assay; format: functional, Cell membrane
[15] = target: T2, Metabotropic glutamate receptor 1; experiment: Antagonist activity at human mGlu1 receptor expressed in CHO cell membranes in presence of glutamate by intracellular Ca2+ assay; format: functional, Cell membrane
[16] = target: T1, Metabotropic glutamate receptor 4; experiment: Antagonist activity at human mGlu4 receptor expressed in CHO cell membranes in presence of glutamate by GTPgammaS binding assay; format: functional, Cell membrane
[17] = target: T3, Metabotropic glutamate receptor 6; experiment: Antagonist activity at human mGlu6 receptor expressed in HEK293T cell membranes in presence of glutamate by GTPgammaS binding assay; format: functional, Cell membrane
[18] = target: T4, Metabotropic glutamate receptor 8; experiment: Antagonist activity at human mGlu8 receptor expressed in CHO cell membranes in presence of glutamate by GTPgammaS binding assay; format: functional, Cell membrane

Sequence of Delta-type opioid receptor (Homo sapiens) (P41143 whole entry): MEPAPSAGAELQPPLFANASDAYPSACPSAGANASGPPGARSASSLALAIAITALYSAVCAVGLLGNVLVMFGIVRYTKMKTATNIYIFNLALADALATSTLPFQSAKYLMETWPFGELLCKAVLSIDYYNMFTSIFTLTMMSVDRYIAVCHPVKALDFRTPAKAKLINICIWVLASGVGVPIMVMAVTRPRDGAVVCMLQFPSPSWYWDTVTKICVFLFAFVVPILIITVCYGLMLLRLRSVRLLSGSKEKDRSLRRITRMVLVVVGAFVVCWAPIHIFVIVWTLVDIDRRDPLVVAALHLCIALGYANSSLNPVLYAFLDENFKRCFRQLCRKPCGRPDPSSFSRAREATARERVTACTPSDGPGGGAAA
T1 sequence (Q14833 whole entry): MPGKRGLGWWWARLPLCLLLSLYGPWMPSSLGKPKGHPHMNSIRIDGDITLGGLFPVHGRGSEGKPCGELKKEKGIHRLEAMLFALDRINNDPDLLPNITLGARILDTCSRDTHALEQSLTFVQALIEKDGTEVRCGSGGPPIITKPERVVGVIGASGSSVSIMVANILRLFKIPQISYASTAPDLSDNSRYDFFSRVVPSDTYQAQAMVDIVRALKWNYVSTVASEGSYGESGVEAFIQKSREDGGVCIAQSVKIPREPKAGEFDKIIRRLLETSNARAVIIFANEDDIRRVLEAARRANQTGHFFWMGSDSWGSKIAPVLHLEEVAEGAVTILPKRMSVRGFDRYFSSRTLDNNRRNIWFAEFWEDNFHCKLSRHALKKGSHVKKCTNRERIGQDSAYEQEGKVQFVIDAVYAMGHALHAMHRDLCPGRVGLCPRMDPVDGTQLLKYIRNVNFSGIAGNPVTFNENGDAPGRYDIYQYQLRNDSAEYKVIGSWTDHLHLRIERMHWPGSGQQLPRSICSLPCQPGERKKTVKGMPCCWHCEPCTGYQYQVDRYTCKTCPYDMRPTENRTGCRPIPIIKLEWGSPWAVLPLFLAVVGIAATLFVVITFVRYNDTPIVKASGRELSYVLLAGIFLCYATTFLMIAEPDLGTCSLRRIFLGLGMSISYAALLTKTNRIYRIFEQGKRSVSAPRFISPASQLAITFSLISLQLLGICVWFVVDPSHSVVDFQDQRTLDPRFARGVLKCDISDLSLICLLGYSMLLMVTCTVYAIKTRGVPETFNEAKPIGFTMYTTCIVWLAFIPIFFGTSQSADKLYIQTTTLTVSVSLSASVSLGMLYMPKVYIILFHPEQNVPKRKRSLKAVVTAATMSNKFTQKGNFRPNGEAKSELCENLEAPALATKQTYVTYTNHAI
T3 sequence (O15303 whole entry): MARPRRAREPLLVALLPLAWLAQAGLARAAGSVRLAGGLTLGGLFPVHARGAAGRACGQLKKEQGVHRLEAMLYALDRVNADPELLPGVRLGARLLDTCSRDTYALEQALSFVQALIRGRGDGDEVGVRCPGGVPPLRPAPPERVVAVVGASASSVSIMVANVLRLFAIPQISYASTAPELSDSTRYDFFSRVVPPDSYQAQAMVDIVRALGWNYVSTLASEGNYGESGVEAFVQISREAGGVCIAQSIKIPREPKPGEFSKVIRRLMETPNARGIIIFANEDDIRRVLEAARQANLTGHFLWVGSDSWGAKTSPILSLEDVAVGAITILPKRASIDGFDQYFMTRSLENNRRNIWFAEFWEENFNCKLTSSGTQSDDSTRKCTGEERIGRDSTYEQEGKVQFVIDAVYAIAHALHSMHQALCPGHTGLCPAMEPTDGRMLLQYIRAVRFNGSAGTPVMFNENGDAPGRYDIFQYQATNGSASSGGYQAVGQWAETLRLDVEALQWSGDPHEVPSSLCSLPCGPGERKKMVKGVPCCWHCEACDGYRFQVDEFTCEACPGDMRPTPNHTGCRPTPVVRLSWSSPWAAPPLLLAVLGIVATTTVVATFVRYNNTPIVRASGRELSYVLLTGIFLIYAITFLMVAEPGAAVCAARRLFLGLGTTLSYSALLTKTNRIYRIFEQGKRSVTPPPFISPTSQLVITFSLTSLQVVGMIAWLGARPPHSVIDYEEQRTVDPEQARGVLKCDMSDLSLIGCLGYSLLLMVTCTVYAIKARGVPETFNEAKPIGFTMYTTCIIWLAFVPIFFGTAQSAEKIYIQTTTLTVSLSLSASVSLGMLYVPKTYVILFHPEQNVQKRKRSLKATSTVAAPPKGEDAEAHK
T2 sequence (Q13255 whole entry): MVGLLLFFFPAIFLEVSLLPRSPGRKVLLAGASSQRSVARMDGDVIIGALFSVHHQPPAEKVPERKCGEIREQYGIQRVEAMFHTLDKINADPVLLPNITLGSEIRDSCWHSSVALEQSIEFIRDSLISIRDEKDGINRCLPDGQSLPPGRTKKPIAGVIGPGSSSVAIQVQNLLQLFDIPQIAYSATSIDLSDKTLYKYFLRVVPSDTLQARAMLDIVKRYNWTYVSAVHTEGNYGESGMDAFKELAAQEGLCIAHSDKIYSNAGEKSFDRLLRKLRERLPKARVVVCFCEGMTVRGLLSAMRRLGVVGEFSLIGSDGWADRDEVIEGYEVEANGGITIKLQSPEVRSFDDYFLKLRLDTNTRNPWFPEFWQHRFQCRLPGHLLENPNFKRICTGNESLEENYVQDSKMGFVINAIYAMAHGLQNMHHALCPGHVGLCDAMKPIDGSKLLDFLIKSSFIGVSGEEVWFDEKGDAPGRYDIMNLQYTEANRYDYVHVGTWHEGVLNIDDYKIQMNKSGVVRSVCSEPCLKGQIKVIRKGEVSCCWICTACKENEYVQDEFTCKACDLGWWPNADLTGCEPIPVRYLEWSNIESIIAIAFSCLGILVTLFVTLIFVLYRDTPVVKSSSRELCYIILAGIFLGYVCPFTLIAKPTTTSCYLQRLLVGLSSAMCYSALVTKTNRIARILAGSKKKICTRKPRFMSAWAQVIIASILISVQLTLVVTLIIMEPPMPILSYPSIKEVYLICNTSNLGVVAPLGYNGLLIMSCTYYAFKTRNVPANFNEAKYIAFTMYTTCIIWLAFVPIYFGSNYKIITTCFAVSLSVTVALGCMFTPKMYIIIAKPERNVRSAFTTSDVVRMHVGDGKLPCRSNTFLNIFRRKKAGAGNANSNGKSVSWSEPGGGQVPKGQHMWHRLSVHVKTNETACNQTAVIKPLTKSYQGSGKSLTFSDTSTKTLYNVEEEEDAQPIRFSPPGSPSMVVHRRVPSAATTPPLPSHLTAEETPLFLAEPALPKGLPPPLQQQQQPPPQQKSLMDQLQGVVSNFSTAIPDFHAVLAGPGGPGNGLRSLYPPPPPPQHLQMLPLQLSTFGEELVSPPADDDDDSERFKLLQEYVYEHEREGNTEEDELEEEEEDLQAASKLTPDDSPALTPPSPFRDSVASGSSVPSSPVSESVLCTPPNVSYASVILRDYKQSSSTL
Sequence of Muscarinic acetylcholine receptor M1 (Homo sapiens) (P11229 whole entry): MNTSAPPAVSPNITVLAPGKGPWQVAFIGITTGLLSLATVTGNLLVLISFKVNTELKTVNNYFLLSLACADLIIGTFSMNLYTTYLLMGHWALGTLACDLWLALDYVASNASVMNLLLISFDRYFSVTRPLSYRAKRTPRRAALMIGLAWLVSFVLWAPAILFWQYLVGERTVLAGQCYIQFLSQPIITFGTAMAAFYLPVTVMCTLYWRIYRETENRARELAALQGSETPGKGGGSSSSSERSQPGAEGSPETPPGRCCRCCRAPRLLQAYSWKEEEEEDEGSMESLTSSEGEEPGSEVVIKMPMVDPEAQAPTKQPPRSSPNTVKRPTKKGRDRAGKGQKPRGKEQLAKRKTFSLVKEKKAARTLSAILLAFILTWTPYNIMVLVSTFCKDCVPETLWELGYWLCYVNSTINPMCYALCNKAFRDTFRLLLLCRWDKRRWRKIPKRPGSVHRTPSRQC
Sequence of Platelet-activating factor receptor (Homo sapiens) (P25105 whole entry): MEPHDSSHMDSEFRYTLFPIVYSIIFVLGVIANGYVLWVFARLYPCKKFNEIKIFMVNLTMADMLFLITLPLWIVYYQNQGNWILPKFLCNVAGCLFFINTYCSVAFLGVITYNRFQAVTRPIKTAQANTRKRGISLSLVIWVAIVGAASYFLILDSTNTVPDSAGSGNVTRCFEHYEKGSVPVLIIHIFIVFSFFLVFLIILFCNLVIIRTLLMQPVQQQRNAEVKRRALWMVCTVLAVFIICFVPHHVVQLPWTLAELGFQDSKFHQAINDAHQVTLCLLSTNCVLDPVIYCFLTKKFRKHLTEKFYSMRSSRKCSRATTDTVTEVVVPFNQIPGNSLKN
Sequence of D(1A) dopamine receptor (Homo sapiens) (P21728 whole entry): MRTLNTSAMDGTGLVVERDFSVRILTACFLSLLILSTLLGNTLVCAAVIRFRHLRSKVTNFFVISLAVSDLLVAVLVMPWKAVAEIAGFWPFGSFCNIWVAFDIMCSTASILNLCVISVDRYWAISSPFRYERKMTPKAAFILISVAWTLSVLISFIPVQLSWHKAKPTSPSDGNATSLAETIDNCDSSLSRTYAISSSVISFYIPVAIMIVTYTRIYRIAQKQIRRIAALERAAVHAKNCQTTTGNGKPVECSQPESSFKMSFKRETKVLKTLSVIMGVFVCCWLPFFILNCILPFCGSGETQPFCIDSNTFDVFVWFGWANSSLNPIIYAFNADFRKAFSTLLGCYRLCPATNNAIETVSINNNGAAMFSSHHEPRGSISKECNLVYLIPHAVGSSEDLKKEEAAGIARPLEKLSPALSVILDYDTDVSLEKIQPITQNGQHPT

Row | SMILES | EC50 [1] [µM] | Activity [2] | Activity [3] | Activity [4] | Activity [5] | Activity [6] | bioavailability [7] [%] | EC50 [8] [µM] | Emax [9] [%] | IC50 [10] [µM] | EC50 [11] [µM] | EC50 [12] [µM] | EC50 [13] [µM] | EC50 [14] [µM] | IC50 [15] [µM] | IC50 [16] [µM] | IC50 [17] [µM] | IC50 [18] [µM]
1 | CC(C)[C@@H]1CC[C@@H](C)C[C@H]1OC(=O)O[C@@H](C)OC(=O)[C@H]1[C@@H]2C[C@H](F)[C@@](N)(C(=O)O)[C@@H]21 | > 30 | inactive | inactive | inactive | inactive | inactive | – | – | – | – | – | – | – | – | – | – | – | –
2 | N[C@]1(C(=O)O)[C@H]2[C@@H](C[C@@H]1F)[C@@H]2C(=O)O | – | inactive | inactive | inactive | inactive | inactive | 4 | 0.0969 | 99.7 | > 30 | > 30 | > 30 | > 30 | > 30 | > 30 | > 30 | > 30 | > 30
